Laboratory results as given in US11564928B1, “Cannabinoid receptor type 2 (CB2) modulators and uses thereof” (Teon Therapeutics, Inc., priority 2020, dated 2023).
pIC50: −log10 of the molar value.

Tests used:
human CB2 receptor [1] = target: T1, human CB2 receptor (Homo sapiens (Human), UniProt P34972); test: CB2 receptor binding assay ([3H]CP-55,940 displacement, HEK-293 membranes); details: membranes of HEK-293 cells with human recombinant CB2R, [3H]CP-55,940; read-out: CB2 IC50
human recombinant CB1R = human recombinant CB1R (Homo sapiens (Human), UniProt P21554); test: CB1 receptor binding assay ([3H]CP-55,940 displacement, HEK-293 membranes); details: membranes of HEK-293 cells with human recombinant CB1R, [3H]CP-55,940; read-out: CB1 IC50
Summary of the method: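 Membranes from HEK-293 cells expressing human recombinant CB1R or CB2R were incubated with [3H]CP-55,940 and compound for 120 min at 37 °C in duplicate. The CB2R incubation buffer was 50 mM Tris-HCl, 5 mM MgCl2, 1 mM CaCl2, 0.2% BSA, pH 7.4. Bound radioactivity was filtered and counted, and IC50 was converted to Ki by Cheng–Prusoff.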

human CB2 receptor [2] = target: T1, human CB2 receptor; test: CB2 receptor cAMP assay (DiscoverX HitHunter cAMP XS+); type: cell-based; details: for Emax: CHO-K1, read-out: Max Stimulation %
Summary of the method: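 CHO-K1 cells expressing human CB2, HitHunter cAMP XS+ chemiluminescence. Agonist mode with EC80 forskolin, inverse agonist with EC20 forskolin, antagonist mode by compound preincubation 30 min then EC80 agonist plus EC80 forskolin; 30 or 60 min at 37 °C or RT, 1% vehicle. IC50 from variable-slope fit.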

T1 sequence (P34972 whole entry): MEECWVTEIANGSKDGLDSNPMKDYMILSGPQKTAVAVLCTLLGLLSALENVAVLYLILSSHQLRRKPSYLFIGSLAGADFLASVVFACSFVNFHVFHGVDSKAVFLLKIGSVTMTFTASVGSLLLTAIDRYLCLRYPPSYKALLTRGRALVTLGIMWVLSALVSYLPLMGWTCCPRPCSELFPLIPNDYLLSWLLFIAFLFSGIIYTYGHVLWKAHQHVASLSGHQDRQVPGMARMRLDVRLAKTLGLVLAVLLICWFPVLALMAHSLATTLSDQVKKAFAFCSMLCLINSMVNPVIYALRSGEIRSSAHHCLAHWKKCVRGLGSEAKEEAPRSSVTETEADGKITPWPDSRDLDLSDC
human recombinant CB1R, sequence (P21554 whole entry): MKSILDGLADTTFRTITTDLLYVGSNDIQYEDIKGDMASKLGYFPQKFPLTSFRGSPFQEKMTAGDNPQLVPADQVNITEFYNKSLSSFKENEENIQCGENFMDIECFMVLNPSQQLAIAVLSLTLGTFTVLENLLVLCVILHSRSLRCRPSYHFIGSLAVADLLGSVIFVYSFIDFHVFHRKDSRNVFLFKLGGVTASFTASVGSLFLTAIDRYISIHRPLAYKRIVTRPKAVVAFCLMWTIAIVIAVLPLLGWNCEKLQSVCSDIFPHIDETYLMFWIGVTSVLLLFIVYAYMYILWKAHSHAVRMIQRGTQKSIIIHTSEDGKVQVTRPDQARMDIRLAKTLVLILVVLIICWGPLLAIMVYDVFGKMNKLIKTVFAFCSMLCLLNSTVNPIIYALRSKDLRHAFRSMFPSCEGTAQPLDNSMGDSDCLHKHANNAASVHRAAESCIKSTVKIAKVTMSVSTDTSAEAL

| SMILES | pIC50 (human CB2 receptor [1]) | pIC50 (human recombinant CB1R) | pIC50 (human CB2 receptor [2]) | Emax (human CB2 receptor [2]) [%] |
| --- | --- | --- | --- | --- |
| C[C@@H](NC(=O)c1cc2cc(C3CC3)cnc2n(Cc2ccc(F)cc2)c1=O)c1ccc(C#N)cc1 [Compound 95, (R)—N-(1-(4-cyanophenyl)ethyl)-6-cyclopropyl-1-(4-fluorobenzyl)-2-oxo-1,2-dihydro-1,8-naphthyridine-3-carboxamide] | 8.49 | 6.05 | 8.70 | 60 |
| O=C(NC1CC2(CCC2)C1)c1cc2cc(Br)cnc2n(Cc2ccc(F)cn2)c1=O [Compound 99, 6-bromo-1-((5-fluoropyridin-2-yl)methyl)-2-oxo-N-(spiro[3.3]heptan-2-yl)-1,2-dihydro-1,8-naphthyridine-3-carboxamide] | 7.92 | < 5.00 | 7.28 | 89 |
| CC(C)c1cnc2c(c1)cc(C(=O)N[C@H](C)c1ccc(F)cc1)c(=O)n2Cc1ccc(F)cn1 [Compound 100, (R)—N-(1-(4-fluorophenyl)ethyl)-1-((5-fluoropyridin-2-yl)methyl)-6-isopropyl-2-oxo-1,2-dihydro-1,8-naphthyridine-3-carboxamide] | 8.40 | 5.54 | 8.70 | 82 |
| C[C@@H](NC(=O)c1cc2cc(C3COC3)cnc2n(Cc2ccc(F)cc2)c1=O)c1ccc(C#N)cc1 [Compound 101, (R)—N-(1-(4-cyanophenyl)ethyl)-1-(4-fluorobenzyl)-6-(oxetan-3-yl)-2-oxo-1,2-dihydro-1,8-naphthyridine-3-carboxamide] | 8.12 | 5.68 | 7.68 | 71 |
| O=C(NC1CC2(CCC2)C1)c1cc2cc(C3COC3)cnc2n(Cc2ccc(F)cc2)c1=O [Compound 102, 1-(4-fluorobenzyl)-6-(oxetan-3-yl)-2-oxo-N-(spiro[3.3]heptan-2-yl)-1,2-dihydro-1,8-naphthyridine-3-carboxamide] | 8.64 | 5.79 | 8.52 | 79 |
| C[C@@H](NC(=O)c1cc2cc(C3COC3)cnc2n(Cc2ccc(F)cc2)c1=O)c1ccc(F)cc1 [Compound 103, (R)-1-(4-fluorobenzyl)-N-(1-(4-fluorophenyl)ethyl)-6-(oxetan-3-yl)-2-oxo-1,2-dihydro-1,8-naphthyridine-3-carboxamide] | 8.52 | 5.54 | 8.05 | 91 |
| COc1ccc(-c2cnc3c(c2)cc(C(=O)NCc2ccc(F)cc2)c(=O)n3CCN2CCOCC2)cc1 [Compound 105, N-(4-fluorobenzyl)-6-(4-methoxyphenyl)-1-(2-morpholinoethyl)-2-oxo-1,2-dihydro-1,8-naphthyridine-3-carboxamide] | 7.85 | < 5.00 | 7.55 | 116 |
